From patent publication US9879050B2, “Substituted urea depsipeptide analogs as activators of the CLPP endopeptidase” (priority 2013, dated 2018) come the findings set out here.

Assay [1] concerns the target T1, Sa-ClpP (Staphylococcus aureus, UniProt Q2G036).
T1 construct: made in house; host or cells: E. coli BL21 (DE3)
Description: ClpP activation, EnzCheck Protease Assay with Bodipy-FL casein (second described method). The class given is biochemical, S. aureus. The note with it: read-out: ClpP Activation EC50 (converted). The procedure: Alternatively, the assay was carried out using EnzCheck Protease Assay (Molecular Probes, Catalog #E6638). The assay was performed in black 384 well, flat bottom, low volume plates (Greiner Bio-One, Monroe, N.C., catalog #784076). 10 μL of Tris.HCl buffer, pH 8.0 with 0.01% Triton X-100 was pipetted into each well using a Well-Mate (Thermo Scientific, Waltham, Mass.). 0.4 μL test compounds or controls (2% DMSO v/v) were added to each well using a Biomek FX liquid handling robot (Beckman Coulter, Indianapolis Ind.). After addition of test compounds and controls, 10 μL of master mix containing 2 μM Sa-ClpP and 2 μM substrate (Bodipy-FL labeled casein) in Tris*HCl buffer, pH 8.0 with 0.01% (v/v) Triton X-100, was pipetted into each well. All assays were performed in triplicate, under linear velocity conditions. Increase in fluorescent signal following activation of Sa-ClpP by test compounds and controls was measured over time period of 30 mins using filters with excitation at 485±15 nm and emission at 520±25 nm on a PHERAstar FS Multilabel reader (BMG, Cary, N.C.). […] Data analysis was done by measuring rate of casein degradation over time (slopes). Computed degradation rates (slopes) were normalized to positive (ADEP4) or negative (DMSO) controls. Using nonlinear regression curve fitting EC50 values and % activation were determined using the equation “log [agonist]vs. Response-variable slope (four parameters)-symmetrical” in the program Prism 6 (GraphPad Software, La Jolla, Calif. USA, www.graphpad.com).

Assay [2] addresses T1, Sa-ClpP. The assay can be described thus: ADEP displacement fluorescence polarization assay. Type of assay: binding, S. aureus. The note with it: 1 μM Sa-ClpP, 50 nM FP probe ADEP 2591; read-out: ADEP Displacement IC50. The procedure: A fluorescence polarization (FP) assay was used to determine the activity of the disclosed compounds in displacing an ADEP analogue from ClpP. Briefly, the assay was performed in black 384 well, flat bottom, low volume plates (Greiner Bio-One, Monroe, N.C., catalog #784076). 20 μL of a pre-equilibrated (1 hr, room temperature) master mix (1 μM Sa-ClpP, 2% DMSO (v/v) and 50 nM FP probe in Tris*HCl, pH 8.0)) was pipetted into each well using a Well-Mate (Thermo Scientific, Waltham, Mass.). Sa-ClpP was prepared as described above for the ClpP activation assay. The FP probe was ADEP 2591 (structure shown above). The ADEP 2591 comprises a TAMRA fluorophore linked to a core based on modified ADEP 2378 via a short alkyl linker. Using pin transfer, approximately 0.4 μL (2% v/v DMSO) of each compound or control was added per well. After addition of compounds and controls, plates were allowed to incubate for an additional 120 minutes at room temperature. All assays were performed in triplicate. Polarization was monitored using an EnVision Multilabel reader (Perkin-Elmer, Waltham, Mass.) by exciting the FP probe at 530±25 nm, and monitoring fluorescence intensity of both parallel and perpendicular polarized light at 579±25 nm. Readout was in millipolarization units (mP).
Signal gain and G factors were determined in wells containing 20 μM ADEP 2378, which had been previously verified (data not shown) as containing completely unbound ADEP 2591. Data collected was normalized to values obtained from positive (20 μM ADEP 2378) or negative (DMSO) controls. Curves were fit with non-linear regression using the equation “log [inhibitor]vs. Response-variable slope (four parameters)-symmetrical” in the program Prism 6 (GraphPad Software, La Jolla, Calif. USA, www.graphpad.com). The structures for ADEP 2378 and ADEP 2591 are shown above. ADEP 2378 is (E)-N-((S)-1-(((2R,6S,8aS,14aS,20S,23aS)-2,6-dimethyl-5,8,14,19,23-pentaoxooctadecahydro-1H,5H,14H,19H-pyrido[2,1-i]dipyrrolo[2,1-c:2′,1′-1][1]oxa[4,7,10,13]tetraazacyclohexadecin-20-yl)amino)-1-oxo-3-phenylpropan-2-yl)pent-2-enamide. ADEP 2591 is 5-(3-(3-((6S,9S,11aS,17S,20aS)-6,10-dimethyl-5,8,11,16,20-pentaoxo-17-((S)-2-((E)-pent-2-enamido)-3-phenylpropanamido)hexadecahydro-1H,5H,16H-dipyrrolo[2,1-c:2′,1′-1][1]oxa[4,7,10,13]tetraazacyclohexadecin-9-yl)propyl)thioureido)-2-(6-(dimethylamino)-3-(dimethyliminio)-3H-xanthen-9-yl)benzoate.
A general note: Polarisation of emitted light reports the rotation of a fluorescent probe.

In another assay the test system is S. aureus USA 300 ΔClpP. Description: Minimal inhibitory concentration, microbroth dilution. Type of assay: cell-based, Staphylococcus aureus. The note with it: ClpP inactivated strain. As for the experimental part: (§1) Minimal inhibitory concentrations (“MICs”) were determined using the microbroth dilution method according to Clinical Laboratory Standards Institute (CLSI; National, C.F. C. L. S., Methods for Dilution Antimicrobial Susceptibility Tests for Bacteria Grow aerobically-Seventh Edition: Approved Standard M7-A7, CLSI, Wayne, Pa., USA, 2008) and were read by visual inspection. Two fold serial dilutions of test compound in 100 μL of the appropriate broth media were first prepared in 96-well round bottom microtiter plates (Nalgene Nunc International, Rochester, N.Y., USA). An equivalent volume (100 μL) of bacterial broth inocula containing approximately 10^5 bacterial cfu/mL was added to each well to give final concentrations of test compound starting at 200 μM. The plates were then incubated aerobically at 37° C. All strains were incubated overnight. After incubations, in all cases the MIC was recorded as the lowest concentration of drug that prevented bacterial growth. The bacterial strains for which MIC was determined as described in Table 4.
For orientation: Dilution methods test growth across graded concentrations, often in twofold steps.

The test system of the next assay is S. pneumoniae R6. The assay is described as above. The class given is cell-based. The note with it: Streptococcus pneumoniae, R6, read-out: Minimal Inhibitory Concentration S. pneumoniae R6. The procedure:
(§2) Minimal inhibitory concentrations (“MICs”) were determined using the microbroth dilution method according to Clinical Laboratory Standards Institute (CLSI; National, C.F. C. L. S., Methods for Dilution Antimicrobial Susceptibility Tests for Bacteria Grow aerobically-Seventh Edition: Approved Standard M7-A7, CLSI, Wayne, Pa., USA, 2008) and were read by visual inspection. Two fold serial dilutions of test compound in 100 μL of the appropriate broth media were first prepared in 96-well round bottom microtiter plates (Nalgene Nunc International, Rochester, N.Y., USA). […] The plates were then incubated aerobically at 37° C. All strains were incubated overnight. After incubations, in all cases the MIC was recorded as the lowest concentration of drug that prevented bacterial growth. The bacterial strains for which MIC was determined as described in Table 4.

The next assay has as its system S. pyogenes ATCC 700294. The description is as above. The class given is cell-based. The conditions noted are these: Streptococcus pyogenes, ATCC700294, read-out: Minimal Inhibitory Concentration S. pyogenes ATCC 700294. The procedure: as §2
The next assay deals with B. subtilis ATCC 23857. The description is as above. Type of assay: cell-based. The conditions noted are these: Bacillus subtilis, ATCC23857, read-out: Minimal Inhibitory Concentration B. subtilis ATCC 23857. As for the experimental part:
as §1

A further assay concerns S. aureus ATCC 29213. Described as above. The note with it: Staphylococcus aureus, ATCC29213, read-out: Minimal Inhibitory Concentration S. aureus ATCC 29213. The class given is cell-based. The procedure: as §1

In brackets after ≈: the same amount, converted by molar mass. Where only a bound is given, the exact number is not on record here.

T1 sequence (Q2G036 whole entry): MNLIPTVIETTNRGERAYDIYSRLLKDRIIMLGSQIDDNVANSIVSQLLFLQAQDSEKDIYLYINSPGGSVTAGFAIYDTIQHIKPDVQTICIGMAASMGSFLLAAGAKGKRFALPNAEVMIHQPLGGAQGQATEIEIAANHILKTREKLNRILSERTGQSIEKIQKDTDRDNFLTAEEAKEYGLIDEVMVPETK

One may read the EC50 as the concentration needed to bring the measured effect to its halfway point. One may read the IC50 as the midpoint of a concentration-inhibition curve. With `Cc1ccc(NC(=O)N[C@@H](Cc2cc(F)cc(F)c2)C(=O)N[C@@H]2C(=O)N3CCCC3C(=O)N3CCOCC3C(=O)N[C@@H](C)C(=O)N3C[C@H](C)CC3C(=O)O[C@H]2C)cc1` (stereo partly drawn) [Compound 47, (S)-3-(3,5-Difluorophenyl)-2-(3-(P-Tolyl)Ureido)-N-((6aS,12S,13S,15aS,17R,21S,23aS)-13,17,21-Trimethyl-6,11,15,20,23-Pentaoxooctadecahydro-6H,11H,15H-[1,4]Oxazino[3,4-I]Dipyrrolo[2,1-C:2′,1′-L][1]Oxa[4,7,10,13]Tetraazacyclohexadecin-12-Yl)Propanamide], the EC50 on Sa-ClpP [1] is 0.4 ± 0.01 µM. Also, the IC50 at Sa-ClpP [2] is 7.01 ± 0.3 µM. In the assay on S. aureus USA 300 ΔClpP, the “Minimal Inhibitory Concentration S. aureus USA 300 ΔClpP” value is above 200 µM. In addition, the MIC with S. pneumoniae R6 amounted to 0.002 µM (≈ 0.00162 µg/mL); in the assay with S. pyogenes ATCC 700294, 0.02 µM (≈ 0.0162 µg/mL); in the assay on B. subtilis ATCC 23857, 0.8 µM (≈ 0.648 µg/mL); in the assay with S. aureus ATCC 29213, 0.003 µM (≈ 0.00243 µg/mL).

As for `Cc1ccc(NC(=O)N[C@@H](Cc2cc(F)cc(F)c2)C(=O)N[C@H]2COC(=O)C3C[C@H](C)CN3C(=O)[C@H](C)NC(=O)C3CCCCN3C(=O)C3CCCN3C2=O)cc1C` (stereo partly drawn) [Compound 48, (S)-3-(3,5-Difluorophenyl)-N-((2S,6S,8aS,14aS,20S,23aS)-2,6-Dimethyl-5,8,14,19,23-Pentaoxooctadecahydro-1H,5H,14H,19H-Pyrido[2,1-I]Dipyrrolo[2,1-C:2′,1′-L][1]Oxa[4,7,10,13]Tetraazacyclohexadecin-20-Yl)-2-(3-(3,4-Dimethylphenyl)Ureido)Propanamide], the EC50 at Sa-ClpP [1] is 0.7 ± 0.03 µM. Further, the IC50 on Sa-ClpP [2] came to 8.1 ± 0.3 µM. In addition, the “Minimal Inhibitory Concentration S. aureus USA 300 ΔClpP” value in the assay on S. aureus USA 300 ΔClpP was 200 µM. Besides, the MIC with S. pneumoniae R6 stood at 0.8 µM (≈ 0.646 µg/mL); in the assay on S. pyogenes ATCC 700294, 3.1 µM (≈ 2.5 µg/mL); in the assay on B. subtilis ATCC 23857 it was 0.2 µM (≈ 0.162 µg/mL); in the assay on S. aureus ATCC 29213, 1.6 µM (≈ 1.29 µg/mL).

Turning to `Cc1ccc(NC(=O)N[C@@H](Cc2cc(F)cc(F)c2)C(=O)N[C@H]2COC(=O)C3CC(C)(C)CN3C(=O)[C@H](C)NC(=O)C3CCCCN3C(=O)C3CCCN3C2=O)cc1` (stereo partly drawn) [Compound 49, (S)-3-(3,5-Difluorophenyl)-2-(3-(P-Tolyl)Ureido)-N-((6S,8aS,14aS,20S,23aS)-2,2,6-Trimethyl-5,8,14,19,23-Pentaoxooctadecahydro-1H,5H,14H,19H-Pyrido[2,1-I]Dipyrrolo[2,1-C:2′,1′-L][1]Oxa[4,7,10,13]Tetraazacyclohexadecin-20-Yl)Propanamide], at Sa-ClpP [1], the EC50 was 2.3 ± 0.2 µM. In addition, the concentration for half-maximal inhibition (IC50) on Sa-ClpP [2] is 12.7 ± 0.2 µM. In addition, in the assay with S. aureus USA 300 ΔClpP, the “Minimal Inhibitory Concentration S. aureus USA 300 ΔClpP” value stood at 100 µM. Besides, the MIC in the assay with S. pneumoniae R6 was determined as 6.3 µM (≈ 5.09 µg/mL); in the assay on S. pyogenes ATCC 700294, 25 µM (≈ 20.2 µg/mL); with B. subtilis ATCC 23857, 0.4 µM (≈ 0.323 µg/mL); in the assay with S. aureus ATCC 29213 it was 12.5 µM (≈ 10.1 µg/mL).

With `Cc1ccc(NC(=O)N[C@@H](Cc2cc(F)cc(F)c2)C(=O)N[C@H]2COC(=O)C3C[C@H](F)CN3C(=O)[C@H](C)NC(=O)C3CCCCN3C(=O)C3CCCN3C2=O)cc1` (stereo partly drawn) [Compound 50, (S)-3-(3,5-Difluorophenyl)-N-((2S,6S,8aS,14aS,20S,23aS)-2-Fluoro-6-Methyl-5,8,14,19,23-Pentaoxooctadecahydro-1H,5H,14H,19H-Pyrido[2,1-I]Dipyrrolo[2,1-C:2′,1′-L][1]Oxa[4,7,10,13]Tetraazacyclohexadecin-20-Yl)-2-(3-(P-Tolyl)Ureido)Propanamide], the EC50 on Sa-ClpP [1] is 0.9 ± 0.07 µM. The IC50 on Sa-ClpP [2] is 7.66 ± 0.2 µM. Also, the “Minimal Inhibitory Concentration S. aureus USA 300 ΔClpP” value in the assay on S. aureus USA 300 ΔClpP is above 200 µM. In addition, the MIC in the assay with S. pneumoniae R6 was 0.8 µM (≈ 0.638 µg/mL); with S. pyogenes ATCC 700294 it was 1.6 µM (≈ 1.28 µg/mL); with B. subtilis ATCC 23857, above 200 µM; in the assay on S. aureus ATCC 29213, 3.1 µM (≈ 2.47 µg/mL).

As for `Cc1ccc(NC(=O)N[C@@H](Cc2cc(F)cc(F)c2)C(=O)N[C@H]2COC(=O)C3C[C@@H](F)CN3C(=O)[C@H](C)NC(=O)C3CCCCN3C(=O)C3CCCN3C2=O)cc1` (stereo partly drawn) [Compound 51, (S)-3-(3,5-Difluorophenyl)-N-((2R,6S,8aS,14aS,20S,23aS)-2-Fluoro-6-Methyl-5,8,14,19,23-Pentaoxooctadecahydro-1H,5H,14H,19H-Pyrido[2,1-I]Dipyrrolo[2,1-C:2′,1′-L][1]Oxa[4,7,10,13]Tetraazacyclohexadecin-20-Yl)-2-(3-(P-Tolyl)Ureido)Propanamide], on Sa-ClpP [1], the EC50 is 2.5 ± 0.2 µM. In addition, the IC50 at Sa-ClpP [2] was 9.71 ± 0.3 µM. Moreover, the “Minimal Inhibitory Concentration S. aureus USA 300 ΔClpP” value in the assay with S. aureus USA 300 ΔClpP is above 200 µM. Besides, the MIC is 6.3 µM (≈ 5.03 µg/mL) with S. pneumoniae R6, 12.5 µM (≈ 9.97 µg/mL) with S. pyogenes ATCC 700294, above 200 µM in the assay on B. subtilis ATCC 23857 and 12.5 µM (≈ 9.97 µg/mL) in the assay with S. aureus ATCC 29213.
